Assay: Solubility of dye in normal decane
Type: physicochemical
Details: n-decane, 25° C., after heating to 50° C. and leaving 12 hours; 40% by mass added

tetraphenylporphine [Comparative compound H-1]
Solubility in Decane: less than 0.1% by mass
